Source: ChEMBL document CHEMBL3217683, “Matched triplicate design sets in the optimisation of glucokinase activators maximising medicinal chemistry information content” (Medchemcomm, 2013)

Columns and labels:
[1] = biological target: Voltage-gated inwardly rectifying potassium channel KCNH2 (Homo sapiens, UniProt Q12809); assay: Inhibition of human ERG
Rattus norvegicus = species on record: Rattus norvegicus; assay: Unbound clearance in rat; format: ADME, organism-based; conditions: in vivo
[2] = Clearance in rat; format: ADME, organism-based; conditions: in vivo
[3] = Lipophilicity, log D of the compound; format: physicochemical; conditions: octanol/water
Hexokinase-4 = biological target: T1, Hexokinase-4 (Homo sapiens, UniProt P35557); assay: Activity at glucokinase (unknown origin)
T1 sequence (P35557 whole entry): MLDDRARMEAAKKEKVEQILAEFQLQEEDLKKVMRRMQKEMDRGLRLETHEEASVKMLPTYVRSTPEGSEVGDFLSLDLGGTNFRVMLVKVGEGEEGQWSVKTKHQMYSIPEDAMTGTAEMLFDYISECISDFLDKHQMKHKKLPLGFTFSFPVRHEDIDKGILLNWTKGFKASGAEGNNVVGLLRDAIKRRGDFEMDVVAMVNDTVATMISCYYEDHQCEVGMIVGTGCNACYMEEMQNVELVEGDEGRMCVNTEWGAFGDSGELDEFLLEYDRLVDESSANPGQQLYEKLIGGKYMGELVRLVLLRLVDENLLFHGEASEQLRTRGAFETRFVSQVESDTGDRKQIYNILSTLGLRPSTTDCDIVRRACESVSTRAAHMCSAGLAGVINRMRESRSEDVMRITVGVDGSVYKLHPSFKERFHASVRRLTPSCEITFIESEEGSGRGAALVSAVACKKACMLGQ

Chain of Voltage-gated inwardly rectifying potassium channel KCNH2 (Q12809 whole entry): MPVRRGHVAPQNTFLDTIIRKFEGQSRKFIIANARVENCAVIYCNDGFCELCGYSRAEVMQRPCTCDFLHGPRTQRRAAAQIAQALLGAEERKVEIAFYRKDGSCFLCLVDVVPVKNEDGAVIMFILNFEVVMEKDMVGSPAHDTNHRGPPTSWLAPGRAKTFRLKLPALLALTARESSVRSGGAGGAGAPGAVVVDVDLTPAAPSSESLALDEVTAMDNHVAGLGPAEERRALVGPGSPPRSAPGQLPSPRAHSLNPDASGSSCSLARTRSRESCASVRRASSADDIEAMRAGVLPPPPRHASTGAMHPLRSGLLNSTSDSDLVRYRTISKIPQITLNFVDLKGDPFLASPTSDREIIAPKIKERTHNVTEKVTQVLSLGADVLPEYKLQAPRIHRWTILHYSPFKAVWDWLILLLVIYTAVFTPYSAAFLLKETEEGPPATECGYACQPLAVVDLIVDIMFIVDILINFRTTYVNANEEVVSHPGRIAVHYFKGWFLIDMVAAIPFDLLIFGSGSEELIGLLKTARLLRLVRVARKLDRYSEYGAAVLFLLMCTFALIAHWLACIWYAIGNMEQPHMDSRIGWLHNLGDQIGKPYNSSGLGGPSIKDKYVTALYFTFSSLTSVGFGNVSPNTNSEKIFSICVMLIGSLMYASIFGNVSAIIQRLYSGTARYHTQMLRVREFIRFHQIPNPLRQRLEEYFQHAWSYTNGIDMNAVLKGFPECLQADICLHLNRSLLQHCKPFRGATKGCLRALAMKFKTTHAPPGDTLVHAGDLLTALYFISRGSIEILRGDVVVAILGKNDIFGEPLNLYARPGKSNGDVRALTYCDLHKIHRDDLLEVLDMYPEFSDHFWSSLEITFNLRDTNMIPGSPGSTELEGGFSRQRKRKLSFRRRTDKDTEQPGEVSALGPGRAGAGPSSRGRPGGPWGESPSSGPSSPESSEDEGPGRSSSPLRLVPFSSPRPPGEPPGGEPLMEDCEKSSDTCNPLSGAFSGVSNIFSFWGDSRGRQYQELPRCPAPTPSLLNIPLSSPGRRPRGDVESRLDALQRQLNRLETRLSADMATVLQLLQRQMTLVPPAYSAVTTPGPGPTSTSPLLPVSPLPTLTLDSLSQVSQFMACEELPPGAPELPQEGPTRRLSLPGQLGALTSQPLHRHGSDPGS

| CL free (Rattus norvegicus) | clearance [2] | logD [3] | EC50 (Hexokinase-4) | SMILES | IC50 [1] |
| --- | --- | --- | --- | --- | --- |
| 500 mL/min/kg | 37 mL/min/kg | 3.6 |  | COCC[C@H](Oc1ncnc2c1cnn2-c1ccccc1Cl)C(=O)Nc1ccc(C)cn1 | 20000 nM |
| 130 mL/min/kg | 61 mL/min/kg | 2.1 | 316 nM | Cc1cnc(NC(=O)[C@H](COC(C)C)Oc2ncnc3c2cnn3-c2ccccc2Cl)cn1 | > 100000 nM |
| 280 mL/min/kg | 54 mL/min/kg | 2.3 | 158 nM | COCC[C@H](Oc1ncnc2c1cnn2-c1ncccc1Cl)C(=O)Nc1ccc(C)cn1 |  |
|  | 3.8 mL/min/kg | 3.4 | 316 nM | COC[C@H](Oc1ncnc2c1cnn2-c1ccccc1Cl)C(=O)Nc1ccc(C)cn1 | 50100 nM |
|  | 9.3 mL/min/kg | 2.3 | 1580 nM | COC[C@H](Oc1ncnc2c1cnn2-c1ncccc1Cl)C(=O)Nc1ccc(C)cn1 | > 100000 nM |
|  | 4 mL/min/kg | 1.4 | 5010 nM | COC[C@H](Oc1ncnc2c1cnn2-c1ncccc1Cl)C(=O)Nc1cnc(C)cn1 | > 79400 nM |
| 340 mL/min/kg | 52 mL/min/kg | 2.6 | 251 nM | CCOC[C@H](Oc1ncnc2c1cnn2-c1ncccc1Cl)C(=O)Nc1ccc(C)cn1 |  |
| 150 mL/min/kg | 44 mL/min/kg | 2.8 |  | CCOC[C@H](Oc1ncnc2c1cnn2-c1ccccc1Cl)C(=O)Nc1cnc(C)cn1 |  |
| 320 mL/min/kg | 50 mL/min/kg | 1.8 | 1260 nM | CCOC[C@H](Oc1ncnc2c1cnn2-c1ncccc1Cl)C(=O)Nc1cnc(C)cn1 | 15800 nM |
| 1400 mL/min/kg | 71 mL/min/kg | 3.9 | 126 nM | Cc1ccc(NC(=O)[C@H](COC(C)C)Oc2ncnc3c2cnn3-c2ccccc2Cl)nc1 | 31600 nM |
| 390 mL/min/kg | 62 mL/min/kg | 2.9 |  | Cc1ccc(NC(=O)[C@H](COC(C)C)Oc2ncnc3c2cnn3-c2ncccc2Cl)nc1 | > 100000 nM |
| 1500 mL/min/kg | 136 mL/min/kg | 3.2 | 158 nM | Cc1ccc(NC(=O)[C@H](COC2CCC2)Oc2ncnc3c2cnn3-c2ncccc2Cl)nc1 | 39800 nM |
| 650 mL/min/kg | 42 mL/min/kg | 3.6 | 79.4 nM | Cc1cnc(NC(=O)[C@H](COC2CCC2)Oc2ncnc3c2cnn3-c2ccccc2Cl)cn1 | 12600 nM |
| 260 mL/min/kg | 22 mL/min/kg | 2.6 | 158 nM | Cc1cnc(NC(=O)[C@H](COC2CCC2)Oc2ncnc3c2cnn3-c2ncccc2Cl)cn1 |  |
|  |  | 3.5 | 398 nM | CC(C)OC[C@H](Oc1ncnc2c1cnn2-c1ncccc1Cl)C(=O)Nc1ccc(Cl)cn1 | 63100 nM |
|  |  |  | 126 nM | CC(C)OC[C@H](Oc1ncnc2c1cnn2-c1ccccc1Cl)C(=O)Nc1ccc(Cl)cn1 |  |
|  |  | 3 | 316 nM | CCOC[C@H](Oc1ncnc2c1cnn2-c1ncccc1Cl)C(=O)Nc1ccc(Cl)cn1 | 10000 nM |
|  |  | 2.7 |  | CC(C)OC[C@H](Oc1ncnc2c1cnn2-c1ncccc1Cl)C(=O)Nc1ccc(F)cn1 | 79400 nM |
|  |  | 3.9 | 200 nM | CC(C)OC[C@H](Oc1ncnc2c1cnn2-c1ccccc1Cl)C(=O)Nc1ccc(F)cn1 |  |
|  |  | 2.4 |  | CCOC[C@H](Oc1ncnc2c1cnn2-c1ncccc1Cl)C(=O)Nc1ccc(F)cn1 |  |
|  |  | 2.5 | 501 nM | CC(C)OC[C@H](Oc1ncnc2c1cnn2-c1ncccc1Cl)C(=O)Nc1ccccn1 | > 100000 nM |
|  |  | 3.5 | 126 nM | CC(C)OC[C@H](Oc1ncnc2c1cnn2-c1ccccc1Cl)C(=O)Nc1ccccn1 | 63100 nM |
|  |  | 2.1 | 501 nM | CCOC[C@H](Oc1ncnc2c1cnn2-c1ncccc1Cl)C(=O)Nc1ccccn1 | > 100000 nM |
|  |  | 2.5 | 631 nM | CC(C)OC[C@H](Oc1ncnc2c1cnn2-c1ncccc1Cl)C(=O)Nc1ccc(C#N)cn1 | 50100 nM |
|  |  | 3.5 | 316 nM | CC(C)OC[C@H](Oc1ncnc2c1cnn2-c1ccccc1Cl)C(=O)Nc1ccc(C#N)cn1 |  |
|  |  | 2 | 631 nM | CCOC[C@H](Oc1ncnc2c1cnn2-c1ncccc1Cl)C(=O)Nc1ccc(C#N)cn1 | 20000 nM |
